How the values were obtained:
histamine H1 receptor = biological target: T1, histamine H1 receptor (Cavia porcellus, UniProt P31389); experiment: Histamine-H1 receptor binding assay; conditions: guinea pig cerebellum membranes, 0.7 nM [3H]-mepyramine, 30 min at 30° C.
T1 construct: performed in guinea pig cerebellum membranes as described previously; from tissue; host or cells: guinea pig cerebellum membranes
Description: (1) In vitro histamine H1 receptor binding assay, to measure the affinity of the compounds. […] Briefly, the membrane suspensions (160 μg/ml) were incubated at 30° C. with 0.7 nM [^3H]-mepyramine and different concentrations of the test compounds in a final volume of 250 μl. Binding reactions were terminated by filtration after 30 min of incubation and the bound radioactivity was determined. The non-specific binding was measured in the presence of 10 μM of promethazine. The affinity of each test compound to the receptor was determined by using at least six different concentrations run in duplicate. IC50 values were obtained by non-linear regression by use of SAS on a DEC AXP computer.

[1] = tested on: Histamine-induced skin vascular permeability in rats; experiment: Histamine-induced skin vascular permeability in rats; assay type: in vivo; conditions: Rattus norvegicus, 4 h; Male Wistar rats, oral, dose of 3 mg/Kg, four hours after administration, compared with vehicle treated group
Description: Either one, four, eight or 24 hours later the rats were lightly anaesthetized with ether and a cutaneous reaction was induced by two intradermal injections of 50 μl of histamine (100 μg/ml) onto the back, followed by a intravenous injection of 3 ml/kg of Evan's Blue (5 mg/ml), both dissolved in saline. Sixty minutes later, the rats were killed by cervical dislocation and the back skin dissected free. The diameter (in millimetres) of the papule was measured in two directions and the area was calculated.

T1 sequence (P31389 whole entry): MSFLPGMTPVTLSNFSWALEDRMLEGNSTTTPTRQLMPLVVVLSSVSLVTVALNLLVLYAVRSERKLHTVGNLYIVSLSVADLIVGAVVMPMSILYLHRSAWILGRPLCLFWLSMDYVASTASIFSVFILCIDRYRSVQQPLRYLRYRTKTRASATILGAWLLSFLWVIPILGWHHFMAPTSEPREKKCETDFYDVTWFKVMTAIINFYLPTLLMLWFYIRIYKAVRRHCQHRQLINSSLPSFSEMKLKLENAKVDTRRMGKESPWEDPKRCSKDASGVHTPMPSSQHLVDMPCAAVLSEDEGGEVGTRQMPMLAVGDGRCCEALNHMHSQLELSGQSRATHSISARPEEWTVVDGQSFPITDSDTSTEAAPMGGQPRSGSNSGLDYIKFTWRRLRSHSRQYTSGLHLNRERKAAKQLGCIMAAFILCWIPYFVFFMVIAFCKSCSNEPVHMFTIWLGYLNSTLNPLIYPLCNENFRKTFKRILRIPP

In the case of `O=C(O)c1ccccc1OCCN1CCC(c2cn(Cc3ccco3)c3ncccc23)CC1` [Example 8, 2-{2-[4-(1-furan-2-ylmethyl-1H-pyrrolo[2,3-b]pyridin-3-yl)-piperidin-1-yl]-ethoxy}-benzoic acid], the IC50 (histamine H1 receptor) is reported as 405 nM and the inhibition in vivo at 3 mg/kg [1] is reported as greater than 50%.

With `O=C(O)c1ccc(Cl)cc1OCCN1CCC(c2cn(Cc3ccoc3)c3ncccc23)CC1` [Example 44, 4-chloro-2-{2-[4-(1-furan-3-ylmethyl-1H-pyrrolo[2,3-b]pyridin-3-yl)-piperidin-1-yl]-ethoxy}-benzoic acid] the IC50 (histamine H1 receptor) was 70 nM, the melting point was 81.6 to 83.3 °C and the inhibition in vivo at 3 mg/kg [1] was greater than 50%.

Work on `CCOCCn1cc(C2CCN(Cc3ccc(OC)c(C(=O)O)c3)CC2)c2cccnc21` [Example 5] yielded an IC50 (histamine H1 receptor) of 695 nM and an inhibition in vivo at 3 mg/kg [1] greater than 50%.

Compound `COc1ccc(CN2CCC(c3cn(Cc4ccc(Cl)s4)c4ncccc34)CC2)cc1C(=O)O` [Example 19, 5-{4-[1-(5-chlorothiophen-2-ylmethyl)-1H-pyrrolo[2,3-b]pyridin-3-yl]-piperidin-1-ylmethyl}2-methoxybenzoic acid] has an IC50 (histamine H1 receptor) of 500 nM and an inhibition in vivo at 3 mg/kg [1] greater than 50%.
